Reference: US5700640A, “Inducers of gamma globin gene expression and screening assays therefor” (priority 1994, dated 1997)

Assays:
[1] = tested on: erythroid differentiation of cultured cells; details: Leder and Leder 1975; cited from earlier work
[2] = tested on: gamma globin-regulated luciferase mRNA; assay: cells; format: cell-based, human; details: Homo sapiens, K562, 5 h, read-out: increase in luciferase mRNA
Protocol: Total RNA was prepared by the method of McDonald as described in Sambrook et al., (1989) Molecular Cloning: A Laboratory Manual, 2nd Edition, Cold Spring Harbor Laboratory Press. 10 μg total cellular RNA was electrophoresed through agarose gels containing 3.3% formaldehyde. The electrophoresed RNA was then transferred to nitrocellulose filters by standard methods. Each sample was hybridized to specific probes for gamma globin mRNA, mRNA encoding the erythroid specific transcription factor GATA-1 and 28S ribosomal RNA (which was used for standardization). The gamma globin and GATA-1 probes were cDNA probes, which were labeled with ^32 p by random priming reactions (Promega Biotech Inc.). The 28S ribosomal RNA probe was an oligonucleotide having the sequence 5' […] 3' (SEQ ID NO: 3), which was labeled by 5' end labeling using T4 polynucleotide kinase (New England Biolabs). Nucleotide probes were hybridized to the RNA nitrocellulose filters according to standard techniques. After hybridization, radioactive signals on the nitrocellulose filters were directly quantified using a BioRad GS-250 Molecular Imager. mRNA hybridization intensities were normalized to the amount of 28S ribosomal RNA present for each sample. The results are summarized below in Table 1:
To determine if BA exerts its inductive effects by acting directly on pre-existing proteins in the cells, the effect of the protein synthesis inhibitor cycloheximide (CHX) on BA-induced expression of RNA was analyzed. In these experiments, gamma3'PE cells were incubated with 150 μg/ml CHX for 2 hr prior to addition of BA (5 mM). Control cells were incubated with either CHX or BA alone or were mock incubated. Cells were harvested 5 hr later for preparation of total RNA. RNA samples were electrophoresed, transferred to nitrocellulose and hybridized to a ^32 P-labeled luciferase cDNA probe as described in Example 4. The radioactive signals on the filter were quantitated using a BioRad GS-250 Molecular Imager and mRNA levels were normalized to values obtained for mock treated samples. […]

CCCC(=O)O [BA, butyric acid]
induction of erythroid differentiation [1]: potent inducer of erythroid differentiation of cultured cells | fold induction at 5000 µM [2]: ~6
